{"source": "patent US20120190615A1", "about": "“METHODS AND COMPOSITIONS FOR INDUCING WEIGHT LOSS” (Sanford-Burnham Medical Research Institute, priority 2011, published 2012)", "key": {"HIB1 cells": {"system": "HIB1 cells", "experiment": "Differentiation of HIB1 brown preadipocytes (lipid accumulation, mitochondrial biogenesis)", "type": "cell-based", "settings": "SB408124 1 uM, OX treatment for 5 days", "protocol": "To further investigate the role of OX in BAT differentiation, the effect of OX on the preadipocyte cell line HIB1 was evaluated. […] Expression of genes functioning in lipid metabolism and mitochondrial biogenesis was elevated while the anti-adipogenic factors […], Pref1, and Wnt10 were expressed at very low levels (FIG. 16).\nHIB1 cells were stably transfected with lentivirus over-expressing orexin (Len-OX) and compared to vector controls in the absence or presence of exogenous OX (100 nM), Cells were cultured for 7 days in the absence of differentiation medium and stained with Oil Red O. By day 6 of adipogenic differentiation, orexin-expressing cells had undergone normal BAT differentiation as scored by lipid accumulation.\nBrown fat morphological defects seen in both adult and newborn OXR1 KO mice were similar to those observed in OX KO mice. […] To examine the cellular and molecular consequences of OXR1 depletion, lentiviral vectors were used to express a short hairpin (sh) shRNA targeting OXR1 (shOXR1; Open Biosystems, Inc., catalog no. RMM4431-98766481) or a scrambled shRNA control (Open Biosystems, Inc., catalog no. RHS4346) in HIB1 mesenchymal cells. […] After 5 days of differentiation, cultures expressing the scrambled shRNA control had undergone brown fat differentiation as scored by Oil Red O staining and shown in FIG. 18. […]"}, "C3H10T1/2 cells": {"system": "C3H10T1/2 cells", "experiment": "Oxygen consumption / uncoupled respiration of cultured mesenchymal stem cells", "type": "cell-based, mouse", "excerpt": "To determine whether the increased respiration was uncoupled from ATP synthesis, oligomycin-insensitive respiration was first assayed as a measure of uncoupled respiration. Oligomycin inhibits F1 ATP synthetase to suppress only oxidative phosphorylation-associated respiration."}, "[1]": {"system": "primary brown preadipocytes", "experiment": "Differentiation of primary brown preadipocytes (Oil Red O)", "type": "cell-based, mice", "settings": "3 days BMP7 or 100 nM OX, then adipogenic medium", "excerpt": "To assess differentiation of primary brown adipocytes, iBAT preadipocytes were isolated from 1-day-old mice and then differentiated in the presence of OX. Differentiation was confirmed by Oil Red O staining which visualizes lipid accumulation (FIG. 7). […] Taken together. OX activates a full program of brown fat adipogenesis by suppressing adipogenic inhibitors, including BAT regulators, elevating mitochondrial biogenesis and oxygen consumption, and inducing uncoupled respiration.\nTo investigate whether lack of OXR1 impaired BAT differentiation potential, primary brown preadipocytes from OXR1 knockout mice were isolated and differentiated. Generation of wild-type primary brown preadipocyte cell lines was derived from newborn wild-type mice as described previously by Klein et al. (Bioessays, 24: 382-388, 2002), which is hereby incorporated by reference in its entirety. Brown preadipocytes isolated from C57BL-6 mice served as positive control. All cell lines were maintained in Dulbecco's modified […] medium (DMEM), high glucose, supplemented with 10% FBS at 37° C. in a 5% CO2 environment. To induce adipogenesis, the cells were treated for 3 days with either BMP7 or 100 nM OX, at which time they were confluent. Cells were then incubated in adipogenic medium containing 0.125 mM indomethaein, […] dexamethazone, and […] 3-isobutyl-1-methyxanthine (IBMX) supplemented by 20 nM insulin as described by Tseng et al., (Nature, 454: 1000-1004, 2008) which is hereby incorporated by reference in its entirety."}}, "data": [{"molecule": "Cc1cc(NC(=O)Nc2ccc(N(C)C)cc2)c2cc(F)cc(F)c2n1", "note": "[SB408124, reference compound]", "values": [{"measurement": "OX-dependent mitochondrial biogenesis", "setting": "HIB1 cells", "value": "blunted"}]}, {"molecule": "N#CC(C#N)=NNc1ccc(OC(F)(F)F)cc1", "note": "[FCCP, reference compound]", "values": [{"measurement": "oxygen consumption of unstimulated, differentiated cells, increase", "setting": "C3H10T1/2 cells; in the presence of FCCP", "value": 6, "unit": "fold"}]}, {"molecule": "CC[C@H]1/C=C/C=C/C[C@@H](C)[C@H](O)[C@@](C)(O)C(=O)[C@@H](C)[C@H](O)[C@@H](C)C(=O)[C@@H](C)[C@H](O)[C@@H](C)/C=C/C(=O)O[C@@H]2[C@H](C)[C@H](CC1)O[C@]1(CC[C@H](C)[C@H](C[C@@H](C)O)O1)[C@H]2C", "note": "[oligomycin, reference compound]", "values": [{"measurement": "respiration of unstimulated differentiated cells", "setting": "C3H10T1/2 cells; absence of OX", "value": "completely suppressed respiration"}]}, {"molecule": "BMP-7: recombinant human BMP-7 (cat. No. 4579, BioVision), a potent inducer of BAT differentiation (protein, UniProt P18075 293-431, looked up) Bone morphogenetic protein 7: STGSKQRSQNRSKTPKNQEALRMANVAENSSSDQRQACKKHELYVSFRDLGWQDWIIAPEGYAAYYCEGECAFPLNSYMNATNHAIVQTLVHFINPETVPKPCCAPTQLNAISVLYFDDSSNVILKKYRNMVVRACGCH", "values": [{"measurement": "oxygen consumption of treated cells in the presence of oligomycin", "setting": "C3H10T1/2 cells; oligomycin", "value": "efficiently consumed oxygen"}, {"measurement": "differentiation of wild-type preadipocytes based on lipid accumulation", "setting": "[1]", "value": "enhanced differentiation"}]}]}
